Measurements reported in BindingDB's records for doi:10.1021/acs.jmedchem.9b01183 (Univ. Lille, 2020).

Assay: Inhibition of STAT5b in mouse BaF3/FLT3-ITD cells assessed as reduction in cell proliferation

| IC50 [µM] | SMILES |
| --- | --- |
| 76 | O=C(O)c1nonc1NCn1nnnc1Cc1ccccc1 |
| 25 | COC(=O)c1nonc1NCn1cnnn1 |
| 153 | O=C(O)c1nonc1NCn1cnnn1 |
